# According to patent US12258327B2, “5-membered heteroaryl-containing aminopyridine compounds as EGFR inhibitors” (YUHAN CORPORATION, priority 2021, dated 2025):
# Where two headings read alike, the source gives them in different places.
# How the values were obtained:
# EGFR del19/T790M/C797S = EGFR del19/T790M/C797S (Homo sapiens, UniProt P00533, C797S/DEL746-750/T790M); experiment: Biochemical EGFR kinase assay (Lance Ultra TR-FRET), triple mutant del19/T790M/C797S
# In short: (§1)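 Kinase activity is measured by TR-FRET phosphopeptide detection. Compounds span 0.003 μM to 10 μM; the 1 h reaction at room temperature is quenched with EDTA, then labelled antibody (2 nM) is incubated 60 min before reading.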
# EGFR L858R/T790M/C797S = EGFR L858R/T790M/C797S (Homo sapiens, UniProt P00533, C797S/L858R/T790M); experiment: Biochemical EGFR kinase assay (Lance Ultra TR-FRET), triple mutant L858R/T790M/C797S
# In short: as §1
# EGFR del19/C797S = EGFR del19/C797S (Homo sapiens, UniProt P00533, C797S/DEL746-750); experiment: Biochemical EGFR kinase assay (Lance Ultra TR-FRET), double mutant del19/C797S
# In short: as §1
# EGFR L858R/C797S = EGFR L858R/C797S (Homo sapiens, UniProt P00533, C797S/L858R); experiment: Biochemical EGFR kinase assay (Lance Ultra TR-FRET), double mutant L858R/C797S
# In short: as §1
# EGFR wildtype (WT) = EGFR wildtype (WT) (Homo sapiens, UniProt P00533); experiment: Biochemical EGFR kinase assay (Lance Ultra TR-FRET), wildtype
# In short: as §1
# [1] = IC50 del19/T790M/C797S (nM) 100 μM ATP, 100 μM ATP
# [2] = Km ATP, read-out: IC50 del19/T790M/C797S (nM) Km ATP
# [3] = IC50 L858R/T790M/C797S (nM) 100 μM ATP, 100 μM ATP
# [4] = Km ATP, read-out: IC50 L858R/T790M/C797S (nM) Km ATP
# [5] = IC50 del19/C797S (nM) 100 μM ATP, 100 μM ATP
# [6] = Km ATP, read-out: IC50 del19/C797S (nM) Km ATP
# [7] = IC50 L858R/C797S (nM) 100 μM ATP, 100 μM ATP
# [8] = Km ATP, read-out: IC50 L858R/C797S (nM) Km ATP
# [9] = IC50 WT (nM) 100 μM ATP, 100 μM ATP
# [10] = Km ATP, read-out: IC50 WT (nM) Km ATP
# Chain of EGFR L858R/T790M/C797S (P00533 25-1210 T790M/C797S/L858R): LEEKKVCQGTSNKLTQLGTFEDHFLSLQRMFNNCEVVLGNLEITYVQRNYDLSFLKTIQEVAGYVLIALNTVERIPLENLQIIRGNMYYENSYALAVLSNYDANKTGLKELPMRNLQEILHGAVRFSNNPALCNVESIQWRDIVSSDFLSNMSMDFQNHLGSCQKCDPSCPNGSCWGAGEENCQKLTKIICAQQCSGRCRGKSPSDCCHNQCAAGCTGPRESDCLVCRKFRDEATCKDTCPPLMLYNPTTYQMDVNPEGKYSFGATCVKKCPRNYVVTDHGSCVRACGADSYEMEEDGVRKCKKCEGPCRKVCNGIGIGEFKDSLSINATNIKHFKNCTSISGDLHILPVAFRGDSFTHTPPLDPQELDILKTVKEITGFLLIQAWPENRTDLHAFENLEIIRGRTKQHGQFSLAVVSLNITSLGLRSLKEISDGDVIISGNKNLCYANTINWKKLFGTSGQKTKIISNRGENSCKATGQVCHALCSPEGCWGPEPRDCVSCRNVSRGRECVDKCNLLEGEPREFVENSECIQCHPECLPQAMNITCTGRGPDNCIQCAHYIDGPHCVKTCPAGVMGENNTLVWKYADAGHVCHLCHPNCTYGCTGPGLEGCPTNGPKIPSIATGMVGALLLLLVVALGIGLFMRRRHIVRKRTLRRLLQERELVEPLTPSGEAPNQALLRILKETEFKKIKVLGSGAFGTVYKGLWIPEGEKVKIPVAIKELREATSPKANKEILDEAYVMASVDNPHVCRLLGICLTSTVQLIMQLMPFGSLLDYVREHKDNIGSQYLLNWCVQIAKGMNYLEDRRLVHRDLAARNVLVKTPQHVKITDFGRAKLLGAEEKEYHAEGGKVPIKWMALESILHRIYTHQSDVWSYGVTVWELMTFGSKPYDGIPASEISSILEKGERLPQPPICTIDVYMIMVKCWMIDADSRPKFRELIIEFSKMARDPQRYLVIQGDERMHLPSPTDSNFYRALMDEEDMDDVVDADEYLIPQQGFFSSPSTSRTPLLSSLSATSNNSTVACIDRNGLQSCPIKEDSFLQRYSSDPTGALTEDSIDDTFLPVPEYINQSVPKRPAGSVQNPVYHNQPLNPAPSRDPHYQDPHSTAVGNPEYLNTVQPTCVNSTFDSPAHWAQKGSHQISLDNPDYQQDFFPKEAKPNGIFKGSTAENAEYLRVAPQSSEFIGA
# Chain of EGFR L858R/C797S (P00533 25-1210 C797S/L858R): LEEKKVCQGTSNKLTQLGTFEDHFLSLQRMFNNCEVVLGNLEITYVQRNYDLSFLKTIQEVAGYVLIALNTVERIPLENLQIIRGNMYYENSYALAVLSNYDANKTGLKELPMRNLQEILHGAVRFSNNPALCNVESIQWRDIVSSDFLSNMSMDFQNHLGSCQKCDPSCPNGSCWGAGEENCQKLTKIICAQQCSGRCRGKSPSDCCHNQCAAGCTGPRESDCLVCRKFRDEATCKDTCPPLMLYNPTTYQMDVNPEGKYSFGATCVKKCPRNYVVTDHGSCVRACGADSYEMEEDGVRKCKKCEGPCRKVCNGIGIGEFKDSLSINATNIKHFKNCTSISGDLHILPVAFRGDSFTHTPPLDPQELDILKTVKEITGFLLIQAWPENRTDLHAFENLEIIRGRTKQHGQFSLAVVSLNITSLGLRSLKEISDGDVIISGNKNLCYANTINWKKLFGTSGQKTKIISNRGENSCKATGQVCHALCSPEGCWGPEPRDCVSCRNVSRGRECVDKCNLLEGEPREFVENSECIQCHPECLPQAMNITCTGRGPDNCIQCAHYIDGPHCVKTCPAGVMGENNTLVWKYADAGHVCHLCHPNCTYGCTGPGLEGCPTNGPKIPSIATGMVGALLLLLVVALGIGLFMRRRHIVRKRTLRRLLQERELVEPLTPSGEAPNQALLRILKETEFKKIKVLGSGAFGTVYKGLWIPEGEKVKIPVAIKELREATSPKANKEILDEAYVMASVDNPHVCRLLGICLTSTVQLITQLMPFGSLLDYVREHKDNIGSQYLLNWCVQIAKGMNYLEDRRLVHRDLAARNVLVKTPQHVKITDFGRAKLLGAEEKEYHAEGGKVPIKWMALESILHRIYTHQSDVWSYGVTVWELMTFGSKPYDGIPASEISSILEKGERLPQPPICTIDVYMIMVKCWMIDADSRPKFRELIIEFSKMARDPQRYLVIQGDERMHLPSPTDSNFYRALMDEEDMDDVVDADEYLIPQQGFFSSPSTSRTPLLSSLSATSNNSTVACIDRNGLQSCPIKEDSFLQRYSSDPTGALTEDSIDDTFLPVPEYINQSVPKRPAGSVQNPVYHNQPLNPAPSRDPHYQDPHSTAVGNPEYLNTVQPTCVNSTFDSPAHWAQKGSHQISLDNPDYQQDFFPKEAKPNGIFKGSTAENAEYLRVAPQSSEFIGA
# Chain of EGFR wildtype (WT) (P00533 25-1210): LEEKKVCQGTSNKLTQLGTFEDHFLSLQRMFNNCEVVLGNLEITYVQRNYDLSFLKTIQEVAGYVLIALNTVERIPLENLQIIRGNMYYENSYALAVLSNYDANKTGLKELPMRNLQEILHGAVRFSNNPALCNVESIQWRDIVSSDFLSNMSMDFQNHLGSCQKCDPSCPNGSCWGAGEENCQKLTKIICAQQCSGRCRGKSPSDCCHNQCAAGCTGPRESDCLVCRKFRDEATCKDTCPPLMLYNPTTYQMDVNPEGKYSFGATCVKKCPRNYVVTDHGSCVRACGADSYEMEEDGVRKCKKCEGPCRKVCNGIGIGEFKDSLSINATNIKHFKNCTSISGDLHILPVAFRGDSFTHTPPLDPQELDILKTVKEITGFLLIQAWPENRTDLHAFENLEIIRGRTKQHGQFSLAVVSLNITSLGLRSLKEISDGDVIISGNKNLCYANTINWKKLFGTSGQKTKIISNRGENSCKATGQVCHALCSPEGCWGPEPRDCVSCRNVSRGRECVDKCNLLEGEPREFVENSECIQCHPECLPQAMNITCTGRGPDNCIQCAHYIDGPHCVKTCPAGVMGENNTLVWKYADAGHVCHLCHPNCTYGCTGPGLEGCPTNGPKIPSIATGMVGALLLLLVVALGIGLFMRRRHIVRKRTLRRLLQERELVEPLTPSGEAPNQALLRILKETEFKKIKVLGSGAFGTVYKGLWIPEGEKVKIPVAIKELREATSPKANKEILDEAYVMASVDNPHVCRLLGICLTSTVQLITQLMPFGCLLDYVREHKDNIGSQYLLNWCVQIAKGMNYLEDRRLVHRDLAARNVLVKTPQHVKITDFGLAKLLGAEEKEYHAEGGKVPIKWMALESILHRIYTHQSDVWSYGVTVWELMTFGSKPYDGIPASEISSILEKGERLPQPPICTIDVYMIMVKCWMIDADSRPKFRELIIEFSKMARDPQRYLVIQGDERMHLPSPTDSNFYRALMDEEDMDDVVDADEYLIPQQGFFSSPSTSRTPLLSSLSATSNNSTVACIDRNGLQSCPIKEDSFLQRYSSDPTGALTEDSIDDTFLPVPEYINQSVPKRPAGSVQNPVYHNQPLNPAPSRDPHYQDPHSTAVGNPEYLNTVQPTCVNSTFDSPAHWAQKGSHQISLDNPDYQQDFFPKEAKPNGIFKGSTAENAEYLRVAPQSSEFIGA
# Chain of EGFR del19/C797S (P00533 with tags, fused parts or gaps DEL746-750/C797S): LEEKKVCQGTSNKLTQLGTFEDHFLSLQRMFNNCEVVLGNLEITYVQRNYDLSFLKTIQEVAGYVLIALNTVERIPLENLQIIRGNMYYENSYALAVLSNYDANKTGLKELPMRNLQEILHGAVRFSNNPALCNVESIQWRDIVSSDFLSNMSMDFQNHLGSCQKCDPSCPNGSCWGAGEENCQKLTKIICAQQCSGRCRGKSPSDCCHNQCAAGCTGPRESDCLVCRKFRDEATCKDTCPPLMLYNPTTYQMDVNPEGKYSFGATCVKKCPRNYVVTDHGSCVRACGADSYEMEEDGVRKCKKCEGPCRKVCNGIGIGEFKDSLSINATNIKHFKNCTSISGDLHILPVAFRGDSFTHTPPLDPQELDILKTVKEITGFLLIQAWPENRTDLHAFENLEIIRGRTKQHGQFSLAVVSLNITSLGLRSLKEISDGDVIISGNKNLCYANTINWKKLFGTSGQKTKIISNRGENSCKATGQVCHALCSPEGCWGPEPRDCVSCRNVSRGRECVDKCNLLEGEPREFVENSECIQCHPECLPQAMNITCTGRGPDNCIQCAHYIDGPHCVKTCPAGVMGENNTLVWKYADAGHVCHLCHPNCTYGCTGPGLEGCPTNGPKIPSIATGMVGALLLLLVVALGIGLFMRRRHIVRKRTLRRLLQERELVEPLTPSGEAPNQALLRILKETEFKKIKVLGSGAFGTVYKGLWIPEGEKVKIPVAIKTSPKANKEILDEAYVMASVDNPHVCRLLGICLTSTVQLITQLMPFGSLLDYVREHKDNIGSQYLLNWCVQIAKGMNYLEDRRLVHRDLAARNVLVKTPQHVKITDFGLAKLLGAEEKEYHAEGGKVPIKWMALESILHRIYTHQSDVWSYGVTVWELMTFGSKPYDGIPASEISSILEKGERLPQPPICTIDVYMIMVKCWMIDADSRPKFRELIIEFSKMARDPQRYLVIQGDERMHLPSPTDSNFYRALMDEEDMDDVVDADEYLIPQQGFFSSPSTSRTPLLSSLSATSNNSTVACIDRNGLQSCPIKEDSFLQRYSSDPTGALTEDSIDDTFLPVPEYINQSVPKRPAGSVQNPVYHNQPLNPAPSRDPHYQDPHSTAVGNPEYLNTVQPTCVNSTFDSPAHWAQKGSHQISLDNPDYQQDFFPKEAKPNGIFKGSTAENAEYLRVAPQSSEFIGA
IC50 (EGFR del19/T790M/C797S; [1]) [nM],IC50 (EGFR del19/T790M/C797S; [2]) [nM],IC50 (EGFR L858R/T790M/C797S; [3]) [nM],IC50 (EGFR L858R/T790M/C797S; [4]) [nM],IC50 (EGFR del19/C797S; [5]) [nM],IC50 (EGFR del19/C797S; [6]) [nM],IC50 (EGFR L858R/C797S; [7]) [nM],IC50 (EGFR L858R/C797S; [8]) [nM],IC50 (EGFR wildtype (WT); [9]) [nM],IC50 (EGFR wildtype (WT); [10]) [nM],SMILES
0.4,0.3,0.5,0.1,1.1,0.5,2.3,0.8,4690,5.2,"O=S(=O)(C1CC1)n1cc(-c2nccc(Nc3cc(NCC4CCC(NCCF)CC4)c(-c4ccn(C(F)F)n4)cn3)n2)cn1 (stereo not drawn) [Example 132, N^2-(2-(1-(Cyclopropylsulfonyl)-1H-pyrazol-4-yl)pyrimidin-4-yl)-5-(1-(difluoromethyl)-1H-pyrazol-3-yl)-N^4-((4-((2-fluoroethyl)amino)cyclohexyl)methyl)pyridine-2,4-diamine]"
0.5,0.3,3.2,0.1,1.4,0.3,99.3,1,> 10000,92.1,"O=S(=O)(C1CC1)n1cc(-c2nccc(Nc3cc(NC4CCC(CCO)CC4)c(-c4ccn(C(F)F)n4)cn3)n2)cn1 (stereo not drawn) [Example 133, 2-((1r,4r)-4-((2-((2-(1-(Cyclopropylsulfonyl)-1H-pyrazol-4-yl)pyrimidin-4-yl)amino)-5-(1-(difluoromethyl)-1H-pyrazol-3-yl)pyridin-4-yl)amino)cyclohexyl)ethan-1-ol]"
0.5,0.2,0.5,0.1,0.8,0.6,9.2,0.4,> 10000,4.4,"Cn1ccc(-c2cnc(Nc3ccnc(-c4cnn(S(=O)(=O)C5CC5)c4)n3)cc2N[C@H]2CC[C@H](CCO)CC2)n1 [Example 134, 2-((1r,4r)-4-((2-((2-(1-(Cyclopropylsulfonyl)-1H-pyrazol-4-yl)pyrimidin-4-yl)amino)-5-(1-methyl-1H-pyrazol-3-yl)pyridin-4-yl)amino)cyclohexyl)ethan-1-ol]"
0.9,0.8,1,0.4,1.2,0.3,0.8,0.2,321,,"Cn1ccc(-c2cnc(Nc3ccnc(-c4cnn(S(=O)(=O)C5CC5)c4)n3)cc2N[C@H]2CC[C@@H](CCO)CC2)n1 [Example 136, 2-((1s,4s)-4-((2-((2-(1-(Cyclopropylsulfonyl)-1H-pyrazol-4-yl)pyrimidin-4-yl)amino)-5-(1-methyl-1H-pyrazol-3-yl)pyridin-4-yl)amino)cyclohexyl)ethan-1-ol]"
1.2,0.5,0.9,0.2,65.7,24.3,269,35.9,> 10000,1780,"C[C@]1(O)CC[C@@H](Nc2cc(Nc3ccnc(-c4cnn(CC(F)(F)F)c4)n3)ncc2-c2ccn(C(F)F)n2)CC1 [Example 137, (1s,4s)-4-((5-(1-(Difluoromethyl)-1H-pyrazol-3-yl)-2-((2-(1-(2,2,2-trifluoroethyl)-1H-pyrazol-4-yl)pyrimidin-4-yl)amino)pyridin-4-yl)amino)-1-methylcyclohexan-1-ol]"
0.4,0.2,0.8,0.1,47.6,45.1,295,26.9,> 10000,77.7,"COCCn1cc(-c2nccc(Nc3cc(N[C@H]4CC[C@@](C)(O)CC4)c(-c4ccn(C(F)F)n4)cn3)n2)cn1 [Example 138, (1s,4s)-4-((5-(1-(Difluoromethyl)-1H-pyrazol-3-yl)-2-((2-(1-(2-methoxyethyl)-1H-pyrazol-4-yl)pyrimidin-4-yl)amino)pyridin-4-yl)amino)-1-methylcyclohexan-1-ol]"
1.1,1.7,5.2,0.8,99.1,50.2,165,57.1,> 10000,61,"Cn1cc(-c2nccc(Nc3cc(N[C@H]4CC[C@@](C)(O)CC4)c(-c4ccn(C(F)F)n4)cn3)n2)cn1 [Example 139, (1s,4s)-4-((5-(1-(Difluoromethyl)-1H-pyrazol-3-yl)-2-((2-(1-methyl-1H-pyrazol-4-yl)pyrimidin-4-yl)amino)pyridin-4-yl)amino)-1-methylcyclohexan-1-ol]"
3.7,1,3.4,1.1,37.2,27.3,91.5,7.1,8960,137,"C[C@]1(O)CC[C@@H](Nc2cc(Nc3ccnc(-c4cnn(C5CC5)c4)n3)ncc2-c2ccn(C(F)F)n2)CC1 [Example 140, (1s,4s)-4-((2-((2-(1-Cyclopropyl-1H-pyrazol-4-yl)pyrimidin-4-yl)amino)-5-(1-(difluoromethyl)-1H-pyrazol-3-yl)pyridin-4-yl)amino)-1-methylcyclohexan-1-ol]"
15.8,,3.2,,111,,198,,> 10000,,"C[C@]1(O)CC[C@@H](Nc2cc(Nc3ccnc(-c4cnn(CC5CC5)c4)n3)ncc2-c2ccn(C(F)F)n2)CC1 [Example 141, (1s,4s)-4-((2-((2-(1-(Cyclopropylmethyl)-1H-pyrazol-4-yl)pyrimidin-4-yl)amino)-5-(1-(difluoromethyl)-1H-pyrazol-3-yl)pyridin-4-yl)amino)-1-methylcyclohexan-1-ol]"
17.6,,33.8,,114,,37.5,,> 10000,486,"CC(C)(O)Cn1cc(-c2nccc(Nc3cc(N[C@H]4CC[C@@](C)(O)CC4)c(-c4ccn(C(F)F)n4)cn3)n2)cn1 [Example 142, (1s,4s)-4-((5-(1-(Difluoromethyl)-1H-pyrazol-3-yl)-2-((2-(1-(2-hydroxy-2-methylpropyl)-1H-pyrazol-4-yl)pyrimidin-4-yl)amino)pyridin-4-yl)amino)-1-methylcyclohexan-1-ol]"
0.1,0.1,0.2,0.1,2.7,2.9,11.6,0.9,> 10000,62.7,"C[C@]1(O)CC[C@@H](Nc2cc(Nc3ccnc(-c4cnn(CC(F)F)c4)n3)ncc2-c2ccn(C(F)F)n2)CC1 [Example 143, (1s,4s)-4-((2-((2-(1-(2,2-Difluoroethyl)-1H-pyrazol-4-yl)pyrimidin-4-yl)amino)-5-(1-(difluoromethyl)-1H-pyrazol-3-yl)pyridin-4-yl)amino)-1-methylcyclohexan-1-ol]"
,1.2,,0.7,,24,,12.5,,687,"CC(C)Nc1cc(Nc2ccnc(-c3cnn(S(=O)(=O)C4CC4)c3)n2)ncc1-c1ccn(C(F)F)n1 [Example 144, N^2-(2-(1-(Cyclopropylsulfonyl)-1H-pyrazol-4-yl)pyrimidin-4-yl)-5-(1-(difluoromethyl)-1H-pyrazol-3-yl)-N^4-isopropylpyridine-2,4-diamine]"
,0.6,,0.5,,23,,7.2,,199,"C[C@]1(O)CC[C@@H](Nc2cc(Nc3ccnc(-c4cnn(CCF)c4)n3)ncc2-c2ccn(C(F)F)n2)CC1 [Example 145, (1s,4s)-4-((5-(1-(Difluoromethyl)-1H-pyrazol-3-yl)-2-((2-(1-(2-fluoroethyl)-1H-pyrazol-4-yl)pyrimidin-4-yl)amino)pyridin-4-yl)amino)-1-methylcyclohexan-1-ol]"
,1.1,,0.4,,10.8,,4.7,,19.9,"OCC[C@H]1CC[C@@H](Nc2cc(Nc3ccnc(-c4cnn(CC(F)F)c4)n3)ncc2-c2ccn(C(F)F)n2)CC1 [Example 146, 2-((1s,4s)-4-((2-((2-(1-(2,2-Difluoroethyl)-1H-pyrazol-4-yl)pyrimidin-4-yl)amino)-5-(1-(difluoromethyl)-1H-pyrazol-3-yl)pyridin-4-yl)amino)cyclohexyl)ethan-1-ol]"
,1.4,,1.7,,75.5,,27,,128,"CC(C)(O)[C@H]1CC[C@@H](Nc2cc(Nc3ccnc(-c4cnn(CC(F)F)c4)n3)ncc2-c2ccn(C(F)F)n2)CC1 [Example 148, 2-((1s,4s)-4-((2-((2-(1-(2,2-Difluoroethyl)-1H-pyrazol-4-yl)pyrimidin-4-yl)amino)-5-(1-(difluoromethyl)-1H-pyrazol-3-yl)pyridin-4-yl)amino)cyclohexyl)propan-2-ol]"
